± gives the expanded uncertainty stated by the source.
Legend:
[1] = 101.33 kPa, Liquid, Vibrating tube method
[2] = activity coefficient (dimensionless); of the first substance listed, at infinite dilution; xn = mol fraction of the nth substance listed; conditions: 101 kPa, Liquid, Chromatography, x1 = 0

Row | Compound | mass density ([1]; 308.15 K) [kg/m3] | mass density ([1]; 318.15 K) [kg/m3] | mass density ([1]; 328.15 K) [kg/m3] | mass density ([1]; 338.15 K) [kg/m3] | mass density ([1]; 348.15 K) [kg/m3] | mass density ([1]; 358.15 K) [kg/m3] | activity coefficient ([2]; 308.15 K) | activity coefficient ([2]; 318.15 K) | activity coefficient ([2]; 328.15 K) | activity coefficient ([2]; 338.15 K) | activity coefficient ([2]; 348.15 K) | activity coefficient ([2]; 358.15 K) | activity coefficient ([2]; 368.15 K)
1 | CCCC[n+]1cccc(C)c1.N#C[N-]C#N [1-butyl-3-methylpyridinium dicyanamide] | 1040.66 ± 2.1 | 1034.63 ± 2.1 | 1028.66 ± 2.1 | 1022.75 ± 2.1 | 1016.77 ± 2 | 1010.8 ± 2 |  |  |  |  |  |  | 
2 | CCCCCCC [heptane] + CCCC[n+]1cccc(C)c1.N#C[N-]C#N |  |  |  |  |  |  | 82.8 ± 5.7 | 75.7 ± 5.2 | 69.9 ± 4.8 | 64.3 ± 4.4 | 59.4 ± 4.1 | 55.4 ± 3.8 | 51.7 ± 3.5
3 | C=CCCCC [hex-1-ene] + CCCC[n+]1cccc(C)c1.N#C[N-]C#N |  |  |  |  |  |  | 22.4 ± 1.5 | 21.4 ± 1.5 | 20.4 ± 1.4 | 19.5 ± 1.3 | 18.7 ± 1.3 | 17.8 ± 1.2 | 17.1 ± 1.2
4 | CCCCCC [hexane] + CCCC[n+]1cccc(C)c1.N#C[N-]C#N |  |  |  |  |  |  | 56.1 ± 3.8 | 51.7 ± 3.5 | 47.8 ± 3.3 | 44.3 ± 3 | 41.3 ± 2.8 | 38.6 ± 2.6 | 36 ± 2.5
5 | CC1CCCCC1 [methylcyclohexane] + CCCC[n+]1cccc(C)c1.N#C[N-]C#N |  |  |  |  |  |  | 34.1 ± 2.3 | 31.5 ± 2.2 | 29.3 ± 2 | 27.3 ± 1.9 | 25.5 ± 1.7 | 23.9 ± 1.6 | 22.6 ± 1.5
6 | CCCCCCCCC [nonane] + CCCC[n+]1cccc(C)c1.N#C[N-]C#N |  |  |  |  |  |  | 182 ± 13 | 162 ± 11 | 148 ± 10 | 134 ± 9 | 122 ± 8 | 112 ± 8 | 103 ± 7
7 | C=CCCCCCC [oct-1-ene] + CCCC[n+]1cccc(C)c1.N#C[N-]C#N |  |  |  |  |  |  | 49.7 ± 3.4 | 46.7 ± 3.2 | 44 ± 3 | 41.8 ± 2.9 | 39.5 ± 2.7 | 37.6 ± 2.6 | 35.7 ± 2.4
8 | CCCCCCCC [octane] + CCCC[n+]1cccc(C)c1.N#C[N-]C#N |  |  |  |  |  |  | 123 ± 8 | 111 ± 8 | 101 ± 7 | 92.7 ± 6.4 | 85.2 ± 5.8 | 79 ± 5.4 | 73.3 ± 5
9 | CCCC(C)=O [pentan-2-one] + CCCC[n+]1cccc(C)c1.N#C[N-]C#N |  |  |  |  |  |  |  |  | 1.81 ± 0.12 | 1.84 ± 0.12 | 1.89 ± 0.13 | 1.93 ± 0.13 | 1.96 ± 0.13
10 | CCC(=O)CC [pentan-3-one] + CCCC[n+]1cccc(C)c1.N#C[N-]C#N |  |  |  |  |  |  |  |  | 1.84 ± 0.12 | 1.89 ± 0.13 | 1.94 ± 0.13 | 1.97 ± 0.13 | 2.01 ± 0.14
11 | CCCO [propan-1-ol] + CCCC[n+]1cccc(C)c1.N#C[N-]C#N |  |  |  |  |  |  |  |  |  | 0.678 ± 0.046 | 0.663 ± 0.045 | 0.65 ± 0.044 | 0.638 ± 0.044
12 | c1ccncc1 [pyridine] + CCCC[n+]1cccc(C)c1.N#C[N-]C#N |  |  |  |  |  |  |  |  |  | 0.718 ± 0.048 | 0.731 ± 0.048 | 0.754 ± 0.05 | 0.768 ± 0.05
13 | C=Cc1ccccc1 [styrene] + CCCC[n+]1cccc(C)c1.N#C[N-]C#N |  |  |  |  |  |  |  |  | 1.39 ± 0.09 | 1.44 ± 0.09 | 1.49 ± 0.1 | 1.54 ± 0.1 | 1.59 ± 0.11
14 | C1CCOC1 [tetrahydrofuran] + CCCC[n+]1cccc(C)c1.N#C[N-]C#N |  |  |  |  |  |  | 1.38 ± 0.09 | 1.4 ± 0.09 | 1.43 ± 0.09 | 1.45 ± 0.1 | 1.47 ± 0.1 | 1.5 ± 0.1 | 1.53 ± 0.1
15 | c1ccsc1 [thiophene] + CCCC[n+]1cccc(C)c1.N#C[N-]C#N |  |  |  |  |  |  | 0.822 ± 0.053 | 0.844 ± 0.054 | 0.868 ± 0.055 | 0.89 ± 0.057 | 0.911 ± 0.058 | 0.937 ± 0.059 | 0.955 ± 0.06
16 | Cc1ccccc1 [toluene] + CCCC[n+]1cccc(C)c1.N#C[N-]C#N |  |  |  |  |  |  |  |  | 2.01 ± 0.14 | 2.05 ± 0.14 | 2.1 ± 0.14 | 2.15 ± 0.15 | 2.2 ± 0.15
17 | O [water] + CCCC[n+]1cccc(C)c1.N#C[N-]C#N |  |  |  |  |  |  |  |  |  | 0.294 ± 0.031 | 0.302 ± 0.031 | 0.307 ± 0.031 | 0.314 ± 0.031

From the NIST ThermoML archive (doi:10.1016/j.jct.2013.09.007)
